Results from patent US10836763B2, “5 to 7 membered heterocyclic amides as JAK inhibitors” (priority 2018, dated 2020).
Like-named read-outs stand apart in the source and are kept apart here.

Experiments:
Lung S9 metabolism = format: in vitro ADME, human; settings: for Compound Remaining at 60 min (%) / microsomal CLint at 1 µM: human lung S9, 1 μM compound, 1 mg/mL S9 protein, NADPH and PAPS; for microsomal CLint at 1 µM: lung S9 fraction, pH 7.4, read-out: Clearance; for Sulfate Appearance: qualitative, O-sulfate metabolite peak in human lung S9
Experimental: Assay 5: Lung S9 Metabolism […] Lung S9 fractions from human (lot 1410245) were purchased from XenoTech LLC (Lenexa, Kans.). NADPH (Sigma Aldrich, N1630) and 3-phosphoadenosine 5-phosphosulfate (PAPS) (Sigma Aldrich, A1651) were purchased from Sigma Aldrich (St. Louis, Mo.). Acetonitrile and water were obtained from VWR (Radnor, Pa.) and were of HPLC grade or better. Raloxifene and formic acid was purchased from Sigma Aldrich (St. Louis, Mo.). Lung S9 incubations were performed in a water bath at 37° C. in a 96-well polypropylene plate. […] All samples were centrifuged at 2250 g for 10 minutes at 5° C. Supernatant (50 μL) was taken from the centrifuged samples and diluted into 100 μL HPLC water containing internal standard. […] Mobile Phase A consisted of Water+0.2% formic acid and Mobile Phase B consisted of acetonitrile+0.2% formic acid. Peak integration was accomplished using Gubbs GMSU software (Gubbs Inc., Alpharetta, Ga.). For each sample, peak area ratios were calculated by dividing the analyte peak area by the internal standard peak area. […] Determination of sulfate metabolite formation was made qualitatively by observation of early-eluting peak in the parent ion channel which, based on historical internal data, corresponded to the O-sulfate metabolite of each parent compound.

JAK1 = JAK1 (Homo sapiens (Human), UniProt P23458); test: Biochemical JAK kinase assay (LanthaScreen), JAK1
Sequence of JAK1 (P23458 whole entry): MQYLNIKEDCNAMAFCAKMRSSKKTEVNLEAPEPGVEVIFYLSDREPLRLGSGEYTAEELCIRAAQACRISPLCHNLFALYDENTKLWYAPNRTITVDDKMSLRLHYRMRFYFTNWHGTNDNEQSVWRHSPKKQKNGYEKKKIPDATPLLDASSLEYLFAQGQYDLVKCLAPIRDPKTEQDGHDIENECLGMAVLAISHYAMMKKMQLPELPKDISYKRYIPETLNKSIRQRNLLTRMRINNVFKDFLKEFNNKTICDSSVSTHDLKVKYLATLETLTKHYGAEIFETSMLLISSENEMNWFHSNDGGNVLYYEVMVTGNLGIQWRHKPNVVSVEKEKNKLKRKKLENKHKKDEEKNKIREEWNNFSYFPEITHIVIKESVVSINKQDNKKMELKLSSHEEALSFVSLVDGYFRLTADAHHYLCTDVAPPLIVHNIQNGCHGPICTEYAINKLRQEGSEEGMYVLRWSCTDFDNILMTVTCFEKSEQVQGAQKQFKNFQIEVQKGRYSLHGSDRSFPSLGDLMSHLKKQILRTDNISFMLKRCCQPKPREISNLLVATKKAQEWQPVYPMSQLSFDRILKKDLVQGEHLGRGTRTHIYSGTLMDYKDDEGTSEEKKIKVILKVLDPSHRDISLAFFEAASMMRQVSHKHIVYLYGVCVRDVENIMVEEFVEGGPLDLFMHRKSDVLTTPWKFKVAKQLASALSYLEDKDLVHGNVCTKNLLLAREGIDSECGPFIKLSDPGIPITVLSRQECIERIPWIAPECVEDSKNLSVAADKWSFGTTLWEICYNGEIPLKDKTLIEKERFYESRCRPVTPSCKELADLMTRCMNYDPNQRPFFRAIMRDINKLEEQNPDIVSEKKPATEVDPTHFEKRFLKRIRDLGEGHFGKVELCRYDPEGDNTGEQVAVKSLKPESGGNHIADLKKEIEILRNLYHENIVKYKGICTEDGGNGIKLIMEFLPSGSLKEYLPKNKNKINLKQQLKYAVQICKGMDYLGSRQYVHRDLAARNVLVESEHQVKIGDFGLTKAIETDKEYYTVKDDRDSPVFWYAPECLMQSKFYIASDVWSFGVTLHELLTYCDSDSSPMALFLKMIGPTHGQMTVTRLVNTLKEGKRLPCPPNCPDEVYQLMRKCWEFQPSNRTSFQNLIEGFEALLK
Experimental: Assay 1: Biochemical JAK Kinase Assays
A panel of four LanthaScreen JAK biochemical assays (JAK1, 2, 3 and Tyk2) were carried in a common kinase reaction buffer (50 mM HEPES, pH 7.5, 0.01% Brij-35, 10 mM MgCl2, and 1 mM EGTA). Recombinant GST-tagged JAK enzymes and a GFP-tagged STAT1 peptide substrate were obtained from Life Technologies.
Serially diluted compounds were pre-incubated with each of the four JAK enzymes and the substrate in white 384-well microplates (Corning) at ambient temperature for 1 h. ATP was subsequently added to initiate the kinase reactions in 10 μL total volume, with 1% DMSO. […] Kinase reactions were allowed to proceed for 1 hour at ambient temperature before a 10 μL preparation of EDTA (10 mM final concentration) and Tb-anti-pSTAT1 (pTyr701) antibody (Life Technologies, 2 nM final concentration) in TR-FRET dilution buffer (Life Technologies) was added. The plates were allowed to incubate at ambient temperature for 1 h before being read on the EnVision reader (Perkin Elmer). Emission ratio signals (520 nm/495 nm) were recorded and utilized to calculate the percent inhibition values based on DMSO and background controls.
For dose-response analysis, percent inhibition data were plotted vs. compound concentrations, and IC50 values were determined from a 4-parameter robust fit model with the Prism software (GraphPad Software). Results were expressed as pIC50 (negative logarithm of IC50) and subsequently converted to pKi (negative logarithm of dissociation constant, Ki) using the Cheng-Prusoff equation.

[1] = test system: TSLP-evoked TARC release in human peripheral blood mononuclear cells; test: Inhibition of TSLP-evoked TARC release in human peripheral blood mononuclear cells; format: cell-based; settings: read-out: pIC50 ± st. dev., inhibition of TSLP-evoked TARC release (converted)
Excerpt: Assay 4: Inhibition of TSLP-Evoked TARC Release in Human Peripheral Blood Mononuclear Cells
Thymic stromal lymphopoietin (TSLP) and thymus and activation-regulated chemokine (TARC) are overexpressed in asthmatic airways, and correlate with disease severity. In the lungs, TSLP may be released by bronchial epithelial cells in response to allergens and viral infections. TSLP signals through an IL-7Rα/TSLPR heterodimer found in a broad range of tissues and cell types, including epithelial cells, endothelial cells, neutrophils, macrophages, and mast cells. The binding of TSLP to its receptor induces a conformational change that activates JAK1 and JAK2 to phosphorylate various transcription factors, including STAT3 and STAT5. In immune cells, this triggers a cascade of intracellular events that result in cell proliferation, anti-apoptosis, dendritic cell migration, and production of Th2 cytokines and chemokines. In peripheral blood mononuclear cells (PBMC), TSLP has a proinflammatory effect by activating myeloid dendritic cells to attract and stimulate T cells, a process mediated by the chemoattractant TARC.
The potencies of the test compounds were measured for inhibition of TARC release.
PBMC aliquots (previously isolated from whole blood and frozen in aliquots at −80° C.) from 3 to 5 donors were thawed at 37° C. and added dropwise to 40 mL pre-warmed, sterile-filtered, complete RPMI media in 50 mL Falcon tubes. Cells were pelleted and resuspended in complete media at 2.24×10^6 cells/mL. Cells were seeded at […] (190,000 cells) per well in a tissue culture treated 96-well flat bottom microplate. Cells were allowed to rest for 1 hour at 37° C. with 5% CO2.
Compounds were received as 10 mM stock solutions in DMSO. 3.7-fold serial dilutions were performed to generate 9 concentrations of test compound in DMSO at 300× the final assay test concentration. […] After the 1 hour rest period, 95 µL of 2× compound was added to each well of PBMC, for a final assay concentration range of 33.33 μM to […]. 95 μL of 0.2% DMSO in complete media was added to the untreated control wells. Cells were pre-treated with compound for 1 hour at 37° C. with 5% CO2 prior to stimulation.
Recombinant human TSLP protein was reconstituted at 10 μg/mL in sterile DPBS with 0.1% BSA and stored in aliquots at −20° C. Immediately prior to use, an aliquot was thawed and prepared at 20× the final assay concentration in complete media. 10 μL of 20×TSLP was added to each well of PBMC, for a final assay concentration of 10 ng/mL. 10 μL of complete media was added to the unstimulated control wells. Cells were stimulated in the presence of compound for 48 hours at 37° C. with 5% CO2.
Following stimulation, the cell culture supernatants were harvested and TARC levels were detected by enzyme-linked immunosorbent assay (ELISA), using Human CCL17/TARC Quantikine ELISA Kit (R&D Systems # DDN00) according to the manufacturer's instructions.
For dose response analysis, the log [test compound (M)] was plotted versus the percent response values for each donor, and IC50 values were determined using a nonlinear regression analysis with GraphPad Prism Software using the 4-parameter sigmoidal dose-response algorithm with variable slope. Data are expressed as mean pIC50 (negative decadic logarithm IC50) values calculated from pIC50 values of individual donors and rounded to one decimal place.

[2] = ATP at Km 25 μM, pIC50 converted with Cheng-Prusoff
[3] = PBMC from 3 to 5 donors, TSLP 10 ng/mL, 48 hours, TARC ELISA

Compound | Compound Remaining at 60 min (%) (Lung S9 metabolism) | microsomal CLint at 1 µM (Lung S9 metabolism) | Sulfate Appearance (Lung S9 metabolism) | JAK1 pKi (JAK1; [2]) | IC50 [1, 3] | JAK1 pKi (JAK1) | IC50 ([1]; PBMC, 48 h)
CCc1cc(O)c(F)cc1-c1ccc2c(-c3nc4c([nH]3)CN(C)[C@H](C(=O)N3CCN(CCO)C[C@H]3C)C4)n[nH]c2c1 [Compound C-5, ((S)-2-(6-(2-ethyl-5-fluoro-4-hydroxyphenyl)-1H-indazol-3-yl)-5-methyl-4,5,6,7-tetrahydro-3H-imidazo[4,5-c]pyridin-6-yl)((R)-4-(2-hydroxyethyl)-2-methyl-piperazin-1-yl)methanone, reference compound] | 8% | 42.2 µL/min/mg | Yes | 10.1 | 50.1 nM |  | 
CCc1cc(O)c(F)cc1-c1ccc2c(-c3nc4c([nH]3)CN(C(C)C)[C@H](C(=O)N3CCCN(C)CC3)C4)n[nH]c2c1 [Compound C-4, (S)-(2-(6-(2-ethyl-5-fluoro-4-hydroxyphenyl)-1H-indazol-3-yl)-5-isopropyl-4,5,6,7-tetrahydro-3H-imidazo[4,5-c]pyridin-6-yl)(4-methyl-1,4-diazepan-1-yl)methanone, reference compound] | 4% | 53.4 µL/min/mg | Yes | 10.0 | 100 nM |  | 
CCc1cc(O)ccc1-c1ccc2c(-c3nc4c([nH]3)CN(C(C)C)[C@H](C(=O)N3CC[C@H](N(C)C)C3)C4)n[nH]c2c1 [Compound 6, ((S)-3-(dimethylamino)pyrrolidin-1-yl)((S)-2-(6-(2-ethyl-4-hydroxyphenyl)-1H-indazol-3-yl)-5-isopropyl-4,5,6,7-tetrahydro-3H-imidazo[4,5-c]pyridin-6-yl)methanone] | 82% | 3.4 µL/min/mg | Yes |  |  | 10.2 | 158 nM
CCc1cc(O)ccc1-c1ccc2c(-c3nc4c([nH]3)CN(C)[C@H](C(=O)N3CCN(CCO)C[C@H]3C)C4)n[nH]c2c1 [Compound 5, ((S)-2-(6-(2-ethyl-4-hydroxyphenyl)-1H-indazol-3-yl)-5-methyl-4,5,6,7-tetrahydro-3H-imidazo[4,5-c]pyridin-6-yl)((R)-4-(2-hydroxyethyl)-2-methylpiperazin-1-yl)methanone] | 80% | 3.7 µL/min/mg | Yes |  |  | 10.3 | 31.6 nM
CCCN1Cc2[nH]c(-c3n[nH]c4cc(-c5ccc(O)cc5CC)ccc34)nc2C[C@H]1C(=O)N1C[C@@H]2C[C@H]1CN2C [Compound 2, ((S)-2-(6-(2-ethyl-4-hydroxyphenyl)-1H-indazol-3-yl)-5-propyl-4,5,6,7-tetrahydro-3H-imidazo[4,5-c]pyridin-6-yl)((1S,4S)-5-methyl-2,5-diazabicyclo[2.2.1]heptan-2-yl)methanone] | 81% | 3.5 µL/min/mg | Yes | 10.3 | 158 nM |  | 
CCc1cc(O)c(F)cc1-c1ccc2c(-c3nc4c([nH]3)CN(C)[C@H](C(=O)N3CCN(C)C[C@@H]3C)C4)n[nH]c2c1 [Compound C-3, ((S)-2,4-dimethylpiperazin-1-yl)((S)-2-(6-(2-ethyl-5-fluoro-4-hydroxyphenyl)-1H-indazol-3-yl)-5-methyl-4,5,6,7-tetrahydro-3H-imidazo[4,5-c]pyridin-6-yl)methanone, reference compound] | 14% | 33.2 µL/min/mg | Yes |  | 100 nM |  | 
CCCN1Cc2[nH]c(-c3n[nH]c4cc(-c5cc(F)c(O)cc5CC)ccc34)nc2C[C@H]1C(=O)N1C[C@@H]2C[C@H]1CN2C [Compound C-2, ((S)-2-(6-(2-ethyl-5-fluoro-4-hydroxyphenyl)-1H-indazol-3-yl)-5-propyl-4,5,6,7-tetrahydro-3H-imidazo[4,5-c]pyridin-6-yl)((1S,4S)-5-methyl-2,5-diazabicyclo-[2.2.1]heptan-2-yl)methanone, reference compound] | 3% | 61 µL/min/mg | Yes | 10.3 | 251 nM |  | 
CCc1cc(O)ccc1-c1ccc2c(-c3nc4c([nH]3)CN(C(C)C)[C@H](C(=O)N3CCCN(C)CC3)C4)n[nH]c2c1 [Compound 4, (S)-(2-(6-(2-ethyl-4-hydroxyphenyl)-1H-indazol-3-yl)-5-isopropyl-4,5,6,7-tetrahydro-3H-imidazo[4,5-c]pyridin-6-yl)(4-methyl-1,4-diazepan-1-yl)methanone] | 88% | 2.1 µL/min/mg | Yes |  |  | 10.1 | 158 nM
CCCN1Cc2[nH]c(-c3n[nH]c4cc(-c5cc(F)c(O)cc5CC)ccc34)nc2C[C@H]1C(=O)N1CCN(CCO)CC1 [Compound C-1, (S)-(2-(6-(2-ethyl-5-fluoro-4-hydroxyphenyl)-1H-indazol-3-yl)-5-propyl-4,5,6,7-tetrahydro-3H-imidazo[4,5-c]pyridin-6-yl)(4-(2-hydroxyethyl)piperazin-1-yl)methanone, reference compound] | 29% | 20.8 µL/min/mg | Yes | 10.2 | 100 nM |  | 
